Assays:
Assay in all cases: cells
CaR-1 = type: functional, cell-based, Homo sapiens; conditions: Homo sapiens, CaR-1;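 further: growth inhibition of human CaR-1 cancer cells, read out with a cell viability assay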
Description: SANGER: Inhibition of human CaR-1 cell growth in a cell viability assay.

ChaGo-K-1 = type: functional, cell-based; conditions: Homo sapiens;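 further: growth inhibition of ChaGo-K-1 cells, read out with a cell viability assay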
Description: SANGER: Inhibition of human ChaGo-K-1 cell growth in a cell viability assay.

DMS-273 = type: functional, cell-based, Homo sapiens; conditions: Homo sapiens, DMS-273
Description: SANGER: Inhibition of human DMS-273 cell growth in a cell viability assay.

DOHH-2 = type: functional, cell-based; conditions: Homo sapiens;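 further: growth inhibition of human DOHH-2 cells, read out with a cell viability assay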
Description: SANGER: Inhibition of human DOHH-2 cell growth in a cell viability assay.

DU-145 = type: functional, cell-based, Homo sapiens; conditions: Homo sapiens, DU-145
Description: SANGER: Inhibition of human DU-145 cell growth in a cell viability assay.

EKVX = type: functional, cell-based, Homo sapiens; conditions: Homo sapiens, EKVX;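 further: growth inhibition of human EKVX cells, read out with a cell viability assay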
Description: SANGER: Inhibition of human EKVX cell growth in a cell viability assay.

EW-3 = type: functional, cell-based; conditions: Homo sapiens;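 further: cell viability assay read-out, IC50 reflects inhibition of growth of the EW-3 cells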
Description: SANGER: Inhibition of human EW-3 cell growth in a cell viability assay.

HCC 2998 = type: functional, cell-based, Homo sapiens; conditions: Homo sapiens, HCC 2998;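 further: growth inhibition of human HCC2998 cells, measured with a cell viability read-out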
Description: SANGER: Inhibition of human HCC2998 cell growth in a cell viability assay.

HCC38 = type: functional, cell-based, Homo sapiens; conditions: Homo sapiens, HCC38;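 further: cell viability assay on the human HCC38 cell line, with IC50 marking the concentration that inhibits cell growth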
Description: SANGER: Inhibition of human HCC38 cell growth in a cell viability assay.

HDLM-2 = type: functional, cell-based; conditions: Homo sapiens;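 further: cell viability assay measuring suppression of HDLM-2 proliferation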
Description: SANGER: Inhibition of human HDLM-2 cell growth in a cell viability assay.

HN = type: functional, cell-based, Homo sapiens; conditions: Homo sapiens, HN
Description: SANGER: Inhibition of human HN cell growth in a cell viability assay.

HT-29 = type: functional, cell-based, Homo sapiens; conditions: Homo sapiens, HT-29;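 further: growth inhibition of human HT-29 cells, read out by a cell viability assay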
Description: SANGER: Inhibition of human HT-29 cell growth in a cell viability assay.

HTC-C3 = type: functional, cell-based, Homo sapiens; conditions: Homo sapiens, HTC-C3;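 further: inhibition of cell growth, read out with a cell viability assay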
Description: SANGER: Inhibition of human HTC-C3 cell growth in a cell viability assay.

IGROV-1 = type: functional, cell-based, Homo sapiens; conditions: Homo sapiens, IGROV-1;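 further: reduction of IGROV-1 cell growth, read out with a viability assay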
Description: SANGER: Inhibition of human IGROV-1 cell growth in a cell viability assay.

KALS-1 = type: functional, cell-based, Homo sapiens; conditions: Homo sapiens, KALS-1;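 further: growth inhibition of KALS-1 cells, determined with a cell viability assay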
Description: SANGER: Inhibition of human KALS-1 cell growth in a cell viability assay.

KNS-81-FD = type: functional, cell-based, Homo sapiens; conditions: Homo sapiens, KNS-81-FD;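 further: growth inhibition of KNS-81-FD cells, read out with a cell viability assay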
Description: SANGER: Inhibition of human KNS-81-FD cell growth in a cell viability assay.

KP-N-YS = type: functional, cell-based; conditions: Homo sapiens;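 further: cell viability assay measuring inhibition of cell line growth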
Description: SANGER: Inhibition of human KP-N-YS cell growth in a cell viability assay.

KYSE-510 = type: functional, cell-based, Homo sapiens; conditions: Homo sapiens, KYSE-510;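 further: cell viability readout used to measure how strongly growth of the cell line is suppressed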
Description: SANGER: Inhibition of human KYSE-510 cell growth in a cell viability assay.

LB1047-RCC = type: functional, cell-based, Homo sapiens; conditions: Homo sapiens, LB1047-RCC;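 further: inhibition of cell growth, determined with a cell viability assay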
Description: SANGER: Inhibition of human LB1047-RCC cell growth in a cell viability assay.

LB831-BLC = type: functional, cell-based, Homo sapiens; conditions: Homo sapiens, LB831-BLC;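 further: growth inhibition of LB831-BLC cells, read out with a cell viability assay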
Description: SANGER: Inhibition of human LB831-BLC cell growth in a cell viability assay.

LCLC-103H cell line = type: functional, cell-based, Homo sapiens; conditions: Homo sapiens, LCLC-103H
Description: SANGER: Inhibition of human LCLC-103H cell growth in a cell viability assay.

NB10 = type: functional, cell-based, Homo sapiens; conditions: Homo sapiens, NB10;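 further: growth inhibition of NB10 cells, read out by a cell viability assay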
Description: SANGER: Inhibition of human NB10 cell growth in a cell viability assay.

NCI-H1299 = type: functional, cell-based, Homo sapiens; conditions: Homo sapiens, NCI-H1299;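 further: growth inhibition of human NCI-H1299 cells, read out by a cell viability assay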
Description: SANGER: Inhibition of human NCI-H1299 cell growth in a cell viability assay.

NCI-H2030 = type: functional, cell-based, Homo sapiens; conditions: Homo sapiens, NCI-H2030;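 further: growth inhibition of human NCI-H2030 cells, read out by a cell viability assay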
Description: SANGER: Inhibition of human NCI-H2030 cell growth in a cell viability assay.

NCI-H28 = type: functional, cell-based, Homo sapiens; conditions: Homo sapiens, NCI-H28;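 further: growth inhibition of human NCI-H28 cells, read out as cell viability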
Description: SANGER: Inhibition of human NCI-H28 cell growth in a cell viability assay.

NCI-H69 = type: functional, cell-based; conditions: Homo sapiens;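 further: growth inhibition of the cell line, read out with a cell viability assay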
Description: SANGER: Inhibition of human NCI-H69 cell growth in a cell viability assay.

NH-12 = type: functional, cell-based, Homo sapiens; conditions: Homo sapiens, NH-12;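 further: growth inhibition of NH-12 cells, read out with a cell viability assay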
Description: SANGER: Inhibition of human NH-12 cell growth in a cell viability assay.

NOS-1 = type: functional, cell-based, Homo sapiens; conditions: Homo sapiens, NOS-1;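 further: growth inhibition of the human NOS-1 cell line, read out with a cell viability assay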
Description: SANGER: Inhibition of human NOS-1 cell growth in a cell viability assay.

NY = type: functional, cell-based, Homo sapiens; conditions: Homo sapiens, NY
Description: SANGER: Inhibition of human NY cell growth in a cell viability assay.

OAW-42 = type: functional, cell-based, Homo sapiens; conditions: Homo sapiens, OAW-42;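 further: growth inhibition of OAW-42 cells, read out with a cell viability assay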
Description: SANGER: Inhibition of human OAW-42 cell growth in a cell viability assay.

RKO = type: functional, cell-based, Homo sapiens; conditions: Homo sapiens, RKO;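 further: growth inhibition of human RKO cells, read out with a cell viability assay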
Description: SANGER: Inhibition of human RKO cell growth in a cell viability assay.

RPMI-8226 = type: functional, cell-based; conditions: Homo sapiens
Description: SANGER: Inhibition of human RPMI-8226 cell growth in a cell viability assay.

SK-LMS-1 = type: functional, cell-based, Homo sapiens; conditions: Homo sapiens, SK-LMS-1;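 further: growth inhibition of human SK-LMS-1 cells, read out with a cell viability assay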
Description: SANGER: Inhibition of human SK-LMS-1 cell growth in a cell viability assay.

SK-MEL-28 = type: functional, cell-based; conditions: Homo sapiens;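 further: growth inhibition of human SK-MEL-28 cells, read out with a cell viability assay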
Description: SANGER: Inhibition of human SK-MEL-28 cell growth in a cell viability assay.

SK-MEL-30 = type: functional, cell-based; conditions: Homo sapiens;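 further: growth inhibition of SK-MEL-30 cells, determined with a cell viability assay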
Description: SANGER: Inhibition of human SK-MEL-30 cell growth in a cell viability assay.

SK-N-AS = type: functional, cell-based, Homo sapiens; conditions: Homo sapiens, SK-N-AS;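 further: growth inhibition of human SK-N-AS cells, measured with a cell viability assay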
Description: SANGER: Inhibition of human SK-N-AS cell growth in a cell viability assay.

SW1417 = type: functional, cell-based, Homo sapiens; conditions: Homo sapiens, SW1417;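 further: growth inhibition of human SW1417 cells, read out with a cell viability assay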
Description: SANGER: Inhibition of human SW1417 cell growth in a cell viability assay.

SW948 = type: functional, cell-based, Homo sapiens; conditions: Homo sapiens, SW948;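 further: growth inhibition of SW948 cells, read out with a cell viability assay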
Description: SANGER: Inhibition of human SW948 cell growth in a cell viability assay.

SW 954 = type: functional, cell-based, Homo sapiens; conditions: Homo sapiens, SW 954;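 further: growth inhibition of SW954 human cancer cells, read out as cell viability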
Description: SANGER: Inhibition of human SW954 cell growth in a cell viability assay.

647-V = type: functional, cell-based, Homo sapiens; conditions: Homo sapiens, 647-V;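 further: growth inhibition of 647-V cells, read out with a cell viability assay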
Description: SANGER: Inhibition of human 647-V cell growth in a cell viability assay.

A101D = type: functional, cell-based, Homo sapiens; conditions: Homo sapiens, A101D;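 further: growth inhibition of the cell line, measured with a viability assay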
Description: SANGER: Inhibition of human A101D cell growth in a cell viability assay.

A3-KAW = type: functional, cell-based; conditions: Homo sapiens;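 further: growth inhibition of human A3-KAW cells, read out with a cell viability assay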
Description: SANGER: Inhibition of human A3-KAW cell growth in a cell viability assay.

A4-Fuk = type: functional, cell-based; conditions: Homo sapiens;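 further: growth inhibition of A4-Fuk cells, read out by a cell viability assay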
Description: SANGER: Inhibition of human A4-Fuk cell growth in a cell viability assay.

AGS = type: functional, cell-based, Homo sapiens; conditions: Homo sapiens, AGS;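 further: growth inhibition of AGS cells, determined with a cell viability assay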
Description: SANGER: Inhibition of human AGS cell growth in a cell viability assay.

ATN-1 = type: functional, cell-based; conditions: Homo sapiens;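 further: growth inhibition of human ATN-1 cells, read out with a cell viability assay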
Description: SANGER: Inhibition of human ATN-1 cell growth in a cell viability assay.

BFTC-909 = type: functional, cell-based, Homo sapiens; conditions: Homo sapiens, BFTC-909
Description: SANGER: Inhibition of human BFTC-909 cell growth in a cell viability assay.

BHY = type: functional, cell-based, Homo sapiens; conditions: Homo sapiens, BHY;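 further: cell growth inhibition read out by a viability assay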
Description: SANGER: Inhibition of human BHY cell growth in a cell viability assay.

C8166 = type: functional, cell-based; conditions: Homo sapiens;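 further: growth inhibition of human C8166 cells measured by a cell viability assay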
Description: SANGER: Inhibition of human C8166 cell growth in a cell viability assay.

UMC-11 = type: functional, cell-based, Homo sapiens; conditions: Homo sapiens, UMC-11;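 further: growth inhibition of UMC-11 cells, read out with a cell viability assay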
Description: SANGER: Inhibition of human UMC-11 cell growth in a cell viability assay.

no-10 = type: functional, cell-based, Homo sapiens; conditions: Homo sapiens;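 further: growth inhibition of no-10 cells, read out with a cell viability assay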
Description: SANGER: Inhibition of human no-10 cell growth in a cell viability assay.

CAS-1 = type: functional, cell-based, Homo sapiens; conditions: Homo sapiens, CAS-1;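 further: growth inhibition of CAS-1 cells, measured with a cell viability assay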
Description: SANGER: Inhibition of human CAS-1 cell growth in a cell viability assay.

COLO-680N = type: functional, cell-based, Homo sapiens; conditions: Homo sapiens, COLO-680N;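 further: cell viability assay used to measure inhibition of COLO-680N cell growth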
Description: SANGER: Inhibition of human COLO-680N cell growth in a cell viability assay.

CCOc1nc(NC(=O)Cc2cc(OC)ccc2OC)cc(N)c1C#N
IC50 (CaR-1): > 10 µM
IC50 (ChaGo-K-1): > 10 µM
IC50 (DMS-273): > 10 µM
IC50 (DOHH-2): > 10 µM
IC50 (DU-145): > 10 µM
IC50 (EKVX): > 10 µM
IC50 (EW-3): > 10 µM
IC50 (HCC 2998): > 10 µM
IC50 (HCC38): > 10 µM
IC50 (HDLM-2): > 10 µM
IC50 (HN): > 10 µM
IC50 (HT-29): > 10 µM
IC50 (HTC-C3): > 10 µM
IC50 (IGROV-1): > 10 µM
IC50 (KALS-1): > 10 µM
IC50 (KNS-81-FD): > 10 µM
IC50 (KP-N-YS): > 10 µM
IC50 (KYSE-510): > 10 µM
IC50 (LB1047-RCC): > 10 µM
IC50 (LB831-BLC): > 10 µM
IC50 (LCLC-103H cell line): > 10 µM
IC50 (NB10): > 10 µM
IC50 (NCI-H1299): > 10 µM
IC50 (NCI-H2030): > 10 µM
IC50 (NCI-H28): > 10 µM
IC50 (NCI-H69): > 10 µM
IC50 (NH-12): > 10 µM
IC50 (NOS-1): > 10 µM
IC50 (NY): > 10 µM
IC50 (OAW-42): > 10 µM
IC50 (RKO): > 10 µM
IC50 (RPMI-8226): > 10 µM
IC50 (SK-LMS-1): > 10 µM
IC50 (SK-MEL-28): > 10 µM
IC50 (SK-MEL-30): > 10 µM
IC50 (SK-N-AS): > 10 µM
IC50 (SW1417): > 10 µM
IC50 (SW948): > 10 µM
IC50 (SW 954): > 10 µM
IC50 (647-V): > 10 µM
IC50 (A101D): > 10 µM
IC50 (A3-KAW): > 10 µM
IC50 (A4-Fuk): > 10 µM
IC50 (AGS): > 10 µM
IC50 (ATN-1): > 10 µM
IC50 (BFTC-909): > 10 µM
IC50 (BHY): > 10 µM
IC50 (C8166): > 10 µM
IC50 (UMC-11): > 10 µM
IC50 (no-10): > 10 µM
IC50 (CAS-1): > 10 µM
IC50 (COLO-680N): > 10 µM

CC(=O)O[C@@H]1[C@@H](OC(C)=O)[C@@H](O)[C@H](Oc2c(-c3ccc(O)cc3)oc3cc(O)cc(O)c3c2=O)O[C@H]1C
IC50 (CaR-1): > 10 µM
IC50 (ChaGo-K-1): > 10 µM
IC50 (DMS-273): > 10 µM
IC50 (DOHH-2): > 10 µM
IC50 (DU-145): > 10 µM
IC50 (EKVX): > 10 µM
IC50 (EW-3): > 10 µM
IC50 (HCC 2998): > 10 µM
IC50 (HCC38): > 10 µM
IC50 (HDLM-2): > 10 µM
IC50 (HN): > 10 µM
IC50 (HT-29): > 10 µM
IC50 (HTC-C3): > 10 µM
IC50 (IGROV-1): > 10 µM
IC50 (KALS-1): > 10 µM
IC50 (KNS-81-FD): > 10 µM
IC50 (KP-N-YS): > 10 µM
IC50 (KYSE-510): > 10 µM
IC50 (LB1047-RCC): > 10 µM
IC50 (LB831-BLC): > 10 µM
IC50 (LCLC-103H cell line): > 10 µM
IC50 (NB10): > 10 µM
IC50 (NCI-H1299): > 10 µM
IC50 (NCI-H2030): > 10 µM
IC50 (NCI-H28): > 10 µM
IC50 (NCI-H69): > 10 µM
IC50 (NH-12): > 10 µM
IC50 (NOS-1): > 10 µM
IC50 (NY): > 10 µM
IC50 (OAW-42): > 10 µM
IC50 (RKO): > 10 µM
IC50 (RPMI-8226): > 10 µM
IC50 (SK-LMS-1): > 10 µM
IC50 (SK-MEL-28): > 10 µM
IC50 (SK-MEL-30): > 10 µM
IC50 (SK-N-AS): > 10 µM
IC50 (SW1417): > 10 µM
IC50 (SW948): > 10 µM
IC50 (SW 954): > 10 µM
IC50 (647-V): > 10 µM
IC50 (A101D): > 10 µM
IC50 (A3-KAW): > 10 µM
IC50 (A4-Fuk): > 10 µM
IC50 (AGS): > 10 µM
IC50 (ATN-1): > 10 µM
IC50 (BFTC-909): > 10 µM
IC50 (BHY): > 10 µM
IC50 (C8166): > 10 µM
IC50 (UMC-11): > 10 µM
IC50 (no-10): > 10 µM
IC50 (CAS-1): > 10 µM
IC50 (COLO-680N): > 10 µM

Cn1cc(C2=C(c3ccc(Cl)cc3Cl)C(=O)NC2=O)c2ccccc21 [SB-216763]
IC50 (CaR-1): > 10 µM
IC50 (ChaGo-K-1): > 10 µM
IC50 (DMS-273): > 10 µM
IC50 (DOHH-2): > 10 µM
IC50 (DU-145): > 10 µM
IC50 (EKVX): > 10 µM
IC50 (HCC 2998): > 10 µM
IC50 (HCC38): > 10 µM
IC50 (HDLM-2): 0.21 µM
IC50 (HN): > 10 µM
IC50 (HT-29): > 10 µM
IC50 (HTC-C3): > 10 µM
IC50 (IGROV-1): > 10 µM
IC50 (KALS-1): > 10 µM
IC50 (KNS-81-FD): > 10 µM
IC50 (KP-N-YS): > 10 µM
IC50 (KYSE-510): > 10 µM
IC50 (LB1047-RCC): > 10 µM
IC50 (LB831-BLC): > 10 µM
IC50 (LCLC-103H cell line): > 10 µM
IC50 (NB10): > 10 µM
IC50 (NCI-H1299): > 10 µM
IC50 (NCI-H2030): > 10 µM
IC50 (NCI-H28): > 10 µM
IC50 (NH-12): > 10 µM
IC50 (NOS-1): > 10 µM
IC50 (NY): > 10 µM
IC50 (OAW-42): > 10 µM
IC50 (RKO): > 10 µM
IC50 (RPMI-8226): > 10 µM
IC50 (SK-LMS-1): > 10 µM
IC50 (SK-MEL-28): > 10 µM
IC50 (SK-MEL-30): > 10 µM
IC50 (SK-N-AS): > 10 µM
IC50 (SW1417): > 10 µM
IC50 (SW948): > 10 µM
IC50 (SW 954): > 10 µM
IC50 (647-V): > 10 µM
IC50 (A101D): > 10 µM
IC50 (A3-KAW): > 10 µM
IC50 (A4-Fuk): > 10 µM
IC50 (AGS): > 10 µM
IC50 (ATN-1): > 10 µM
IC50 (BFTC-909): > 10 µM
IC50 (BHY): > 10 µM
IC50 (C8166): > 10 µM
IC50 (UMC-11): > 10 µM
IC50 (no-10): > 10 µM
IC50 (CAS-1): > 10 µM
IC50 (COLO-680N): > 10 µM

— ChEMBL document CHEMBL1201861, “Genomics of Drug Sensitity in Cancer screening data, Wellcome Trust Sanger Institute”
